Measurements taken from patent US10399933B2, “Inhibitors of indoleamine-2,3-dioxygenase for the treatment of cancer” (BRISTOL-MYERS SQUIBB COMPANY, priority 2015, dated 2019).

The compounds below were run against human IDO1 (Homo sapiens, UniProt P14902) (assay: Human IDO-1 inhibitory activity in HEK cells (human IDO1/HEK293 cellular assay)). Settings: HEK human IDO-1 cellular assay; 500 nM reference standard = 100% inhibition, DMSO = 0%.
Type: cell-based
Design: expressed in transfected cells
Method: They were cultured in medium (DMEM with 10% FBS) containing 1 mg/ml G418 for two weeks.
The human IDO1/HEK293 cells were seeded at 10,000 cells per 50 μL per well with RPMI/phenol red free media contains 10% FBS in a 384-well black wall clear bottom tissue culture plate (Matrix Technologies LLC) 100 nL of certain concentration of compound was then added to each well using ECHO liquid handling systems. The cells were incubated for 20 hours in 37° C. incubator with 5% CO2.
The compound treatments were stopped by adding trichloroacetic acid (Sigma-Aldrich) to a final concentration at 0.2%. The cell plate was further incubated at 50° C. for 30 minute. The equal volume supernatant (20 μL) and 0.2% (w/v) Ehrlich reagent (4-dimethylaminobenzaldehyde, Sigma-Aldrich) in glacial acetic acid were mixed in a new clear bottom 384-well plate. This plate was then incubated at room temperature for 30 minute. The absorbance at 490 nm was measured on Envision plate reader.

Sequence of human IDO1 (P14902 whole entry): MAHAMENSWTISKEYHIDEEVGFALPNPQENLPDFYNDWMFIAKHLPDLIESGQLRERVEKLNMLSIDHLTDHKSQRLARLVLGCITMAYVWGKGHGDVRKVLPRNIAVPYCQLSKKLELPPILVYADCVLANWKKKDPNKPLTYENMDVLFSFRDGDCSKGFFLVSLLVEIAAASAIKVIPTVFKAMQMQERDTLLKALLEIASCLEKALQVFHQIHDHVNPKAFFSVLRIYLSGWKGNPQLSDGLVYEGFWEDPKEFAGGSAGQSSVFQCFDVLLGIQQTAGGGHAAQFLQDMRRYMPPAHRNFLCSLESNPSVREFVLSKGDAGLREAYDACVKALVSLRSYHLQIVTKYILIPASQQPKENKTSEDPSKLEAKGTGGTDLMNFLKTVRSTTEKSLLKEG

Compound | IC50
CCN(c1ccc([C@H](COC)CC(=O)O)cc1Nc1cnc(OC)nc1)C1CCOCC1 (single isomer, unassigned) [Example 387] | < 50 nM
CCN(c1ccc([C@H](COC)CC(=O)O)cc1Nc1cnc(C)nc1)C1CCOCC1 (single isomer, unassigned) [Example 416] | > 50 nM
CCC(CC(=O)O)c1ccc(N(CC)C2CCOCC2)c(NC(=O)Nc2ccc(C)cc2)c1 (single isomer, unassigned) [Example 487 Enantiomer 2, 3-(4-(Ethyl(tetrahydro-2H-pyran-4-yl)amino)-3-(3-(p-tolyl)ureido)phenyl)pentanoic Acid] | < 5 nM
CCC(CC(=O)O)c1ccc(N(CC)C2CCOCC2)c(NC(=O)Nc2cnc(C)nc2)c1 (single isomer, unassigned) [Example 488 Enantiomer 2, 3-(4-(Ethyl(tetrahydro-2H-pyran-4-yl)amino)-3-(3-(2-methylpyrimidin-5-yl)ureido)phenyl)pentanoic Acid] | > 50 nM
CCN(c1ccc(C(CC(=O)O)c2ccccc2)cc1NC(=O)Nc1ccc(C)cc1)C1CCOCC1 (single isomer, unassigned) [Example 594, 3-(4-(Ethyl(tetrahydro-2H-pyran-4-yl)amino)-3-(3-(p-tolyl)ureido)phenyl)-3-phenylpropanoic Acid] | > 50 nM
CCN(c1ccc(C(C)CC(=O)O)cc1Nc1ccc(Cl)cc1)C1CCOCC1 (single isomer, unassigned) [Example 612 E2, 3-(3-((4-Chlorophenyl)amino)-4-(ethyl(tetrahydro-2H-pyran-4-yl)amino)phenyl)butanoic Acid] | < 5 nM
CCCOc1ncc(Nc2cc(C(CC)CC(=O)O)ccc2N(CC(C)C)C2CCCCC2)cn1 (single isomer, unassigned) [Example 654, 3-(4-(cyclohexyl(isobutyl)amino)-3-((2-propoxypyrimidin-5-yl)amino)phenyl)pentanoic acid] | < 5 nM
CCCN(CC1CC1)c1ccc(C(CC)CC(=O)O)cc1Nc1ccc(Cl)cc1 (single isomer, unassigned) [Example 656 E2, 3-(3-((4-Chlorophenyl)amino)-4-((cyclopropylmethyl) (propyl)amino)phenyl)pentanoic Acid] | < 5 nM
CCC(CC(=O)O)c1ccc(N2C[C@@H]3C[C@H]2CN3Cc2ccccc2)c(Nc2ccc(C)cc2)c1 (single isomer, unassigned) [Example 666 E2] | < 5 nM
CCC(CC(=O)O)c1ccc(N(CC(C)C)C(C)C)c(Nc2ccc3nc(C)sc3c2)c1 (single isomer, unassigned) [Example 730, 3-(4-(isobutyl(isopropyl)amino)-3-((2-methylbenzo[d]thiazol-6-yl)amino)phenyl)pentanoic acid] | > 50 nM
CCC(CC(=O)O)c1ccc(N(CCC(C)C)C2CCCCC2)c(NC(=O)Cc2ccc(C)cc2)c1 (single isomer, unassigned) [Example 1099 E1] | < 50 nM
CCC(CC(=O)O)c1ccc(N(CCC(C)C)C2CCCCC2)c(NC(=O)Cc2ccc(C)cc2)c1 (single isomer, unassigned) [Example 1099 E2] | < 50 nM
CCC(CC(=O)O)c1cc(F)c(N(CC(C)C)C2CCCCC2)c(NC(=O)Cc2ccc(C)cc2)c1 (single isomer, unassigned) [Example 1101 E1] | < 5 nM
CCC(CC(=O)O)c1cc(F)c(N(CC(C)C)C2CCCCC2)c(NC(=O)Cc2ccc(C)cc2)c1 (single isomer, unassigned) [Example 1101 E2] | < 5 nM
CCC(CC(=O)O)c1ccc(N(CC(C)C)CC(C)C)c(NC(=O)Cc2ccc(C)cc2)c1 (single isomer, unassigned) [Example 1103 E2, 3-(4-(Diisobutylamino)-3-(2-(p-tolyl)acetamido)phenyl)pentanoic Acid] | < 5 nM
CCOc1ccc(NC(=O)Nc2cc(C(COC)CC(=O)O)cc(F)c2N(CC(C)C)CC(C)C)cc1 (single isomer, unassigned) [Example 1185, 3-(4-(diisobutylamino)-3-(3-(4-ethoxyphenyl)ureido)-5-fluorophenyl)-4-methoxybutanoic acid] | < 5 nM
COCC(CC(=O)O)c1cc(F)c(N(CC(C)C)CC(C)C)c(NC(=O)Nc2ccc(OC(F)(F)F)cc2)c1 (single isomer, unassigned) [Example 1197, 3-(4-(Diisobutylamino)-3-fluoro-5-(3-(4-(trifluoromethoxy)phenyl)ureido)phenyl)-4-methoxybutanoic Acid] | < 50 nM
CCN(c1ccc(C(COC(C)C)CC(=O)O)cc1Nc1ccc(F)cc1)C1CCS(=O)(=O)CC1 (stereo not shown) [Example 316] | < 50 nM
CCC(CC(=O)O)c1ccc(N2CCCC2C(C)(C)F)c(NC(=O)Nc2ccc(OC)cc2F)c1 [Example 787, 3-(3-(3-(2-fluoro-4-methoxyphenyl)ureido)-4-((S)-2-(2-(fluoropropan-2-yl)pyrrolidin-1-yl)phenyl)pentanoic acid] | > 50 nM
(+/−)-Methyl 3-(4-(isobutyl((1 r,4r)-4-methoxycyclohexyl)amino)-3-(3-(p-tolyl)ureido)phenyl)-4-methoxybutanoate [Example 1005] | > 50 nM

Second part, the compound after the results:

IC50 | Compound
< 50 nM | 3-(4-((1,1-dioxidotetrahydro-2H- thiopyran-4-yl)(ethyl)amino)-3-((4- fluorophenyl)amino)phenyl)-4- isopropoxybutanoic acid [Example 338]
< 5 nM | CCC(CC(=O)O)c1cc(F)c(N(CC(C)C)C2CCCCC2)c(NC(=O)Nc2ccc(Cl)cc2F)c1 (racemic) [Example 1090, 3-(3-(3-(4-chloro-2-fluorophenyl)ureido)-4-(cyclohexyl(isobutyl)amino)-5-fluorophenyl)pentanoic acid]
< 5 nM | CCC(CC(=O)O)c1ccc(N(CC)C2CCCOC2)c(Nc2ccc(Cl)cc2)c1 (single isomer, unassigned) [Example 60 E1, 3-(3-((4-Chlorophenyl)amino)-4-(ethyl(tetrahydro-2H-pyran-3-yl)amino)phenyl)pentanoic Acid]
< 50 nM | CC[C@H](CC(=O)O)c1ccc(N2CCOC[C@@H]2C(C)C)c(Nc2ccc(F)cc2)c1 (single isomer, unassigned) [Example 90]
< 5 nM | CCOc1ncc(Nc2cc(C(CC)CC(=O)O)cc(F)c2N(CC(C)C)CC(C)C)cn1 (single isomer, unassigned) [Example 119, 3-(4-(diisobutylamino)-3-((2-ethoxypyrimidin-5-yl)amino)-5-fluorophenyl) pentanoic acid]
> 50 nM | CCN(c1ccc(C(CC(=O)O)c2ccccc2)cc1NC(=O)Nc1cc(C)on1)C1CCOCC1 (single isomer, unassigned) [Example 597, 3-(4-(ethyl(tetrahydro-2H-pyran-4-yl)amino)-3-(3-(5-methylisoxazol-3-yl)ureido)phenyl)-3-phenylpropanoic acid]
< 5 nM | CCN(c1ccc(C(C)CC(=O)O)cc1NC(=O)Nc1ccc(Cl)cc1F)C1CCOCC1 (single isomer, unassigned) [Example 637 E2, 3-(3-(3-(4-Chloro-2-fluorophenyl)ureido)-4-(ethyl (tetrahydro-2H-pyran-4-yl)amino)phenyl)butanoic Acid]
> 50 nM | CCC(CC(=O)O)c1ccc(N2CCC[C@H]2C(C)(C)F)c(NC(=O)Nc2ccc(OC)cc2F)c1 (single isomer, unassigned) [Example 793]
> 50 nM | CCC(CC(=O)O)c1ccc(N2CCC[C@H]2C(C)(C)O)c(NC(=O)Nc2cc(C)on2)c1 (single isomer, unassigned) [Example 831]
< 50 nM | Cc1ccc(CC(=O)Nc2cc(C(C)CC(=O)O)ccc2N(CC(C)C)C2CCOCC2)cc1 (single isomer, unassigned) [Example 967, 3-(4-(Isobutyl(tetrahydro-2H-pyran-4-yl)amino)-3-(2-(p-tolyl)acetamido)phenyl)butanoic Acid]
< 5 nM | CCC(CC(=O)O)c1cc(F)c(N(CC(C)C)CC(C)C)c(NC(=O)Cc2ccc(Cl)cc2F)c1 (single isomer, unassigned) [Example 1092 E1]
< 5 nM | CCC(CC(=O)O)c1cc(F)c(N(CC(C)C)CC(C)C)c(NC(=O)Cc2ccc(Cl)cc2F)c1 (single isomer, unassigned) [Example 1092 E2]
> 50 nM | COCC(CC(=O)O)c1ccc(N(CC(C)C)C2CCCCC2)c(NC(=O)Cc2cc(C)on2)c1 (single isomer, unassigned) [Example 1238, 3-(4-(Cyclohexyl(isobutyl)amino)-3-(2-(5-methylisoxazol-3-yl)acetamido)phenyl)-4-methoxybutanoic Acid]
< 50 nM | CCN(c1ccc(C(COC(C)C)CC(=O)O)cc1Nc1ccc(F)cc1)C1CCS(=O)(=O)CC1 (stereo not shown) [Example 336]
